Where “and” joins values, the source holds several entries; their conditions need not be identical. Identical values can stand only once. Toxic doses and inconclusive results are not listed.
Test system: BALB/cJ mice, ADJ-PC-6 ip tumor, median survival T/C
Assay: NCI In Vivo Anticancer Drug Screen. Data for tumor model ADJ-PC-6 (intraperitoneal) in BALB/cJ mice
Details: endpoint: median survival time, higher = longer survival
Procedure: The antitumor activity of compounds was measured in mice bearing transplantable tumors. Survival or tumor size were measured and the results are expressed as the measurement made in the treated group (T) divided by the measurement made in the vehicle treated control group (C). The tumor model used in this assay is ADJ-PC-6 (intraperitoneal) in BALB/cJ mice

[1] = dose: 2.0 mg/kg/injection, schedule: Q04DX003 (ip), vehicle: saline
[2] = dose: 1.5 mg/kg/injection, schedule: Q04DX003 (ip), vehicle: saline
[3] = dose: 3.0 mg/kg/injection, schedule: Q04DX003 (ip), vehicle: saline

In the case of `COc1cccc2c1C(=O)c1c(O)c3c(c(O)c1C2=O)C[C@@](O)(C(C)=O)C[C@@H]3OC1CC(N(Cc2ccccc2)Cc2ccccc2)C(O)C(C)O1` (some centres not stated), the T/C (dose: 5.0 mg/kg/injection, schedule: Q04DX003 (ip), vehicle: saline with Tween-80) was 96 % of control, the T/C (dose: 10.0 mg/kg/injection, schedule: Q04DX003 (ip), vehicle: saline with Tween-80) was 109 % of control and the T/C (dose: 20.0 mg/kg/injection, schedule: Q04DX003 (ip), vehicle: saline with Tween-80) was 177 % of control.

With `O=NN(CCCl)C(=O)NCCCl` the T/C (dose: 1.25 mg/kg/injection, schedule: Q04DX003 (ip), vehicle: saline + alcohol) was 106 % of control, the T/C (dose: 5.0 mg/kg/injection, schedule: Q04DX003 (ip), vehicle: saline + alcohol) was 101 % of control and 178 % of control and 248 % of control and the T/C (dose: 10.0 mg/kg/injection, schedule: Q04DX003 (ip), vehicle: saline + alcohol) was 150 % of control and 322 % of control. For the same compound, the T/C (dose: 20.0 mg/kg/injection, schedule: Q04DX003 (ip), vehicle: saline + alcohol) was 222 % of control and 235 % of control and 355 % of control and the T/C (dose: 40.0 mg/kg/injection, schedule: Q04DX003 (ip), vehicle: saline + alcohol) was 92 % of control and 235 % of control.

`CC1=C(C)C(=O)O[C@@H]([C@](C)(O)[C@]2(O)CC[C@@]3(O)[C@@H]4C[C@H]5O[C@]56[C@@H](O)C=CC(=O)[C@]6(C)[C@H]4CC[C@]23C)C1` was tested, and the T/C (dose: 1.0 mg/kg/injection, schedule: Q01DX009 (ip), vehicle: saline + alcohol) was 111 % of control, the T/C (dose: 1.0 mg/kg/injection, schedule: Q01DX009 (ip), vehicle: saline with Tween-80) was 104 % of control and the T/C (dose: 2.0 mg/kg/injection, schedule: Q01DX009 (ip), vehicle: saline + alcohol) was 96 % of control. For the same compound, the T/C (dose: 2.0 mg/kg/injection, schedule: Q01DX009 (ip), vehicle: saline with Tween-80) was 107 % of control, the T/C (dose: 4.0 mg/kg/injection, schedule: Q01DX009 (ip), vehicle: saline + alcohol) was 98 % of control and the T/C (dose: 4.0 mg/kg/injection, schedule: Q01DX009 (ip), vehicle: saline with Tween-80) was 97 % of control. For the same compound, the T/C (dose: 8.0 mg/kg/injection, schedule: Q01DX009 (ip), vehicle: saline + alcohol) was 114 % of control and the T/C (dose: 8.0 mg/kg/injection, schedule: Q01DX009 (ip), vehicle: saline with Tween-80) was 106 % of control.

`CC[C@]1(O)C[C@H]2CN(CCc3c([nH]c4ccccc34)[C@@](C(=O)OC)(c3cc4c(cc3OC)N(C=O)[C@H]3[C@@](O)(C(=O)OC)[C@H](OC(C)=O)[C@]5(CC)C=CCN6CC[C@]43[C@@H]65)C2)C1` was tested, and the T/C (dose: 0.13 mg/kg/injection, schedule: Q04DX003 (ip), vehicle: saline) was 99 % of control and 110 % of control, the T/C (dose: 0.25 mg/kg/injection, schedule: Q04DX003 (ip), vehicle: saline) was 101 % of control and 110 % of control and the T/C (dose: 0.5 mg/kg/injection, schedule: Q04DX003 (ip), vehicle: saline) was 97 % of control and 102 % of control. The T/C (dose: 1.0 mg/kg/injection, schedule: Q04DX003 (ip), vehicle: saline) was 106 % of control and 121 % of control and the T/C [1] was 122 % of control.

With `COc1cc2c(c(OC)c1OC)-c1ccc(OC)c(=O)cc1[C@@H](NC(C)=O)CC2` the T/C (dose: 0.05 mg/kg/injection, schedule: Q01DX009 (ip), vehicle: Klucel (hydroxypropylcellulose) (HPC)) was 99 % of control, the T/C (dose: 0.1 mg/kg/injection, schedule: Q01DX009 (ip), vehicle: Klucel (hydroxypropylcellulose) (HPC)) was 88 % of control and the T/C (dose: 0.2 mg/kg/injection, schedule: Q01DX009 (ip), vehicle: Klucel (hydroxypropylcellulose) (HPC)) was 102 % of control. For the same compound, the T/C (dose: 0.4 mg/kg/injection, schedule: Q01DX009 (ip), vehicle: Klucel (hydroxypropylcellulose) (HPC)) was 108 % of control.

`O=c1[nH]cc(F)c(=O)[nH]1` was tested, and the T/C (dose: 7.5 mg/kg/injection, schedule: Q04DX003 (ip), vehicle: saline) was 150 % of control and 471 % of control, the T/C (dose: 15.0 mg/kg/injection, schedule: Q04DX003 (ip), vehicle: saline) was 173 % of control and 308 % of control and the T/C (dose: 30.0 mg/kg/injection, schedule: Q04DX003 (ip), vehicle: saline) was 150 % of control and 273 % of control and 471 % of control. The T/C (dose: 60.0 mg/kg/injection, schedule: Q04DX003 (ip), vehicle: saline) was 193 % of control and 335 % of control and 471 % of control.

`CC(=O)N(C)c1ccc(Nc2cc(C)[nH]c3ccc4ncnc4c23)cc1` was tested, and the T/C (dose: 10.0 mg/kg/injection, schedule: Q04DX003 (ip), vehicle: saline) was 100 % of control, the T/C (dose: 20.0 mg/kg/injection, schedule: Q04DX003 (ip), vehicle: saline) was 162 % of control and the T/C (dose: 40.0 mg/kg/injection, schedule: Q04DX003 (ip), vehicle: saline) was 107 % of control.

With `CC(C)NC(=O)OCc1c(COC(=O)NC(C)C)c(-c2ccc(Cl)c(Cl)c2)n2c1CCC2` the T/C (dose: 3.75 mg/kg/injection, schedule: Q01DX009 (ip), vehicle: saline with Tween-80) was 235 % of control, the T/C (dose: 5.0 mg/kg/injection, schedule: Q01DX009 (ip), vehicle: saline with Tween-80) was 222 % of control and the T/C (dose: 7.5 mg/kg/injection, schedule: Q01DX009 (ip), vehicle: saline with Tween-80) was 235 % of control. The T/C (dose: 10.0 mg/kg/injection, schedule: Q01DX009 (ip), vehicle: saline with Tween-80) was 222 % of control, the T/C (dose: 15.0 mg/kg/injection, schedule: Q01DX009 (ip), vehicle: saline with Tween-80) was 235 % of control and the T/C (dose: 20.0 mg/kg/injection, schedule: Q01DX009 (ip), vehicle: saline with Tween-80) was 222 % of control. For the same compound, the T/C (dose: 30.0 mg/kg/injection, schedule: Q01DX009 (ip), vehicle: saline with Tween-80) was 235 % of control and the T/C (dose: 60.0 mg/kg/injection, schedule: Q01DX009 (ip), vehicle: saline with Tween-80) was 235 % of control.

For `O=C(O)C1(C(=O)O)CCC1.[NH2-].[NH2-].[Pt+2]`, the T/C (dose: 10.8 mg/kg/injection, schedule: Q01DX009 (ip), vehicle: water) was 159 % of control, the T/C (dose: 11.7 mg/kg/injection, schedule: Q04DX003 (ip), vehicle: water) was 106 % of control and the T/C (dose: 12.5 mg/kg/injection, schedule: Q04DX003 (ip), vehicle: saline) was 108 % of control. The T/C (dose: 18.0 mg/kg/injection, schedule: Q01DX009 (ip), vehicle: water) was 175 % of control, the T/C (dose: 19.4 mg/kg/injection, schedule: Q04DX003 (ip), vehicle: water) was 106 % of control and the T/C (dose: 25.0 mg/kg/injection, schedule: Q04DX003 (ip), vehicle: saline) was 114 % of control. The T/C (dose: 32.4 mg/kg/injection, schedule: Q04DX003 (ip), vehicle: water) was 164 % of control, the T/C (dose: 50.0 mg/kg/injection, schedule: Q04DX003 (ip), vehicle: saline) was 178 % of control and the T/C (dose: 54.0 mg/kg/injection, schedule: Q04DX003 (ip), vehicle: water) was 170 % of control and 215 % of control. The T/C (dose: 90.0 mg/kg/injection, schedule: Q04DX003 (ip), vehicle: water) was 103 % of control and the T/C (dose: 100.0 mg/kg/injection, schedule: Q04DX003 (ip), vehicle: saline) was 217 % of control.

`CCN(CC)CCOC(=O)c1ccc(NCN2C(=O)CCC2=O)cc1` was tested, and the T/C (dose: 10.0 mg/kg/injection, schedule: Q01DX009 (ip), vehicle: water) was 110 % of control, the T/C (dose: 20.0 mg/kg/injection, schedule: Q01DX009 (ip), vehicle: water) was 96 % of control and the T/C (dose: 40.0 mg/kg/injection, schedule: Q01DX009 (ip), vehicle: water) was 98 % of control. For the same compound, the T/C (dose: 80.0 mg/kg/injection, schedule: Q01DX009 (ip), vehicle: water) was 105 % of control and the T/C (dose: 160.0 mg/kg/injection, schedule: Q01DX009 (ip), vehicle: water) was 92 % of control.

With `COc1cccc2c1C(=O)c1c(O)c3c(c(O)c1C2=O)C[C@@](O)(C(C)=O)C[C@@H]3OC1CC(N)C(O)C(C)O1` (some centres not stated) the T/C (dose: 0.38 mg/kg/injection, schedule: Q04DX003 (ip), vehicle: saline) was 101 % of control, the T/C [2] was 174 % of control and the T/C [1] was 177 % of control. For the same compound, the T/C [3] was 117 % of control.

`O=C(O)c1ccc(C(=O)O)o1.[NH-]C1CCCCC1[NH-].[Pt+2]` was tested, and the T/C (dose: 2.59 mg/kg/injection, schedule: Q04DX003 (ip), vehicle: water) was 265 % of control, the T/C (dose: 4.3 mg/kg/injection, schedule: Q04DX003 (ip), vehicle: water) was 254 % of control and the T/C (dose: 7.2 mg/kg/injection, schedule: Q04DX003 (ip), vehicle: water) was 367 % of control. For the same compound, the T/C (dose: 12.0 mg/kg/injection, schedule: Q04DX003 (ip), vehicle: water) was 234 % of control and the T/C (dose: 20.0 mg/kg/injection, schedule: Q04DX003 (ip), vehicle: water) was 451 % of control.

For `CO[C@@]12[C@H](COC(N)=O)C3=C(C(=O)C(C)=C(N)C3=O)N1C[C@@H]1N[C@@H]12`, the T/C [2] was 239 % of control and the T/C [3] was 335 % of control.

Reference: PubChem BioAssay AID184 (DTP/NCI, 2004)
